Where two headings read alike, the source gives them in different places.
What was measured:
[1] = tested on: LNCaP prostate cancer; assay: MTT assay, proliferation inhibition; format: cell-based; settings: Homo sapiens, read-out: Proliferation inhibition rate
Source text: (§1) 1. Cytotoxicity Assay Using Human Tumor Cell Lines
(§2) Paclitaxel was used as the positive drug.

[2] = tested on: MDA-MB-436 breast cancer; assay: MTT assay, proliferation inhibition; format: cell-based; settings: Homo sapiens, read-out: Proliferation inhibition rate
Source text: as §1, §2

[3] = tested on: B16 melanoma; assay: MTT assay, proliferation inhibition; format: cell-based; settings: read-out: Proliferation inhibition rate
Source text: as §1, §2

[4] = tested on: DU145 prostate cancer; assay: MTT assay, proliferation inhibition; format: cell-based; settings: Homo sapiens, DU-145, read-out: Proliferation inhibition rate
Source text: as §1, §2

[5] = tested on: NCI-H460 non-small cell lung cancer; assay: MTT assay, proliferation inhibition; format: cell-based; settings: Homo sapiens, read-out: Proliferation inhibition rate
Source text: as §1, §2

[6] = MTT assay, proliferation inhibition; format: cell-based; settings: Homo sapiens, LN-18 gastric cancer, read-out: Proliferation inhibition rate
Source text: as §1, §2

[7] = tested on: HL60 leukemia; assay: MTT assay, proliferation inhibition; format: cell-based; settings: Homo sapiens, HL-60, read-out: Proliferation inhibition rate
Source text: as §1, §2

[8] = tested on: K562 leukemia; assay: MTT assay, proliferation inhibition; format: cell-based; settings: Homo sapiens, read-out: Proliferation inhibition rate
Source text: as §1, §2

[9] = tested on: A375 melanoma; assay: MTT assay, proliferation inhibition; format: cell-based; settings: Homo sapiens, A-375, read-out: Proliferation inhibition rate
Source text: as §1, §2

[10] = tested on: MCF-7 breast cancer; assay: MTT assay, proliferation inhibition; format: cell-based; settings: Homo sapiens, MCF7, read-out: Proliferation inhibition rate
Source text: as §1, §2

[11] = tested on: BGC-823 gastric cancer; assay: MTT assay, proliferation inhibition; format: cell-based; settings: Homo sapiens, read-out: Proliferation inhibition rate
Source text: as §1, §2

[12] = tested on: A2780 ovarian cancer; assay: MTT assay, proliferation inhibition; format: cell-based; settings: Homo sapiens, read-out: Proliferation inhibition rate
Source text: as §1, §2

[13] = tested on: HT29 colon cancer; assay: MTT assay, proliferation inhibition; format: cell-based; settings: Homo sapiens, HT-29, read-out: Proliferation inhibition rate
Source text: as §1, §2

[14] = tested on: HCT 116 colon cancer; assay: MTT assay, proliferation inhibition; format: cell-based; settings: Homo sapiens, read-out: Proliferation inhibition rate
Source text: as §1, §2

[15] = tested on: HeLa cervical cancer; assay: MTT assay, proliferation inhibition; format: cell-based; settings: Homo sapiens, read-out: Proliferation inhibition rate
Source text: as §1, §2

[16] = tested on: A549 non-small cell lung cancer; assay: MTT assay, proliferation inhibition; format: cell-based; settings: Homo sapiens, read-out: Proliferation inhibition rate
Source text: as §1, §2

[17] = Caco-2 cell monolayer membrane transport assay; settings: human; for Papp A→B: Caco-2, Papp A-B; for recovery: Caco-2, Recovery rate in mass
Source text: (§3) Caco-2 Cell Monolayer Membrane Transport Assay
(§4) Human-derived colorectal adenocarcinoma cell line Caco-2 cell monolayer model was used to study the bidirectional transport of the target compounds from the apical (AP) side to the basolateral (BL) side and from BL side to AP side. HPLC was used for quantitative analysis to calculate transport parameters, apparent permeability coefficient (Papp) and the efflux ratio.

[18] = tested on: breast cancer cell line MCF-7; assay: IC50 values on breast cancer cell line MCF-7; format: cell-based; settings: Homo sapiens
Source text: From the activity evaluation data of the above-mentioned preliminary screen, it can be seen that the series of taxanes derivatives synthesized in the present invention have activity (although the activity of PCMI-43 is weakened). Afterward, most of the compounds are picked up from these derivatives to examine their IC50 values on breast cancer cell line MCF-7. Paclitaxel is used as the positive control drug. Experiments for each compound were independently repeated for three times and multiple holes were used in each experiment. The exposure time of drugs was 72 hours.

[19] = tested on: Caco-2 cell monolayer; assay: Caco-2 cell monolayer membrane transport assay; settings: Caco-2 cell line (21 days); bidirectional transport, Table 5
Source text: as §3, §4

[20] = Mean, Caco-2, A-B, mean of two samples
[21] = Sample-01, Caco-2, A-B, Sample-01
[22] = Sample-02, Caco-2, A-B, Sample-02
[23] = MCF7, MCF-7, exposure 72 hours, mean±SD of three independent experiments, read-out: MCF-7(IC50)
[24] = MCF7, 72 h, read-out: MCF-7(IC50, nM)
[25] = Caco-2 cell line (21 days), bidirectional transport, Table 5

SMILES	inhibition at 1 µM [1] [%]	inhibition at 1 µM [2] [%]	inhibition at 1 µM [3] [%]	inhibition at 1 µM [4] [%]	inhibition at 1 µM [5] [%]	inhibition at 1 µM [6] [%]	inhibition at 1 µM [7] [%]	inhibition at 1 µM [8] [%]	inhibition at 1 µM [10] [%]	inhibition at 1 µM [11] [%]	inhibition at 1 µM [12] [%]	inhibition at 1 µM [13] [%]	inhibition at 1 µM [14] [%]	inhibition at 1 µM [15] [%]	inhibition at 1 µM [16] [%]	Papp A→B [17, 21] [×10⁻⁶ cm/s]	Papp A→B [17, 22] [×10⁻⁶ cm/s]	recovery [17, 20] [%]	recovery [17, 21] [%]	recovery [17, 22] [%]	other results
CO[C@H]1C(=O)[C@]2(C)[C@@H](OC(=O)N(C)C)C[C@H]3OC[C@@]3(OC(C)=O)[C@H]2[C@H](OC(=O)c2ccccc2)[C@]2(O)C[C@H](OC(=O)[C@H](O)[C@@H](NC(=O)N(C)C)c3ccccc3)C(C)=C1C2(C)C [PCMI-35]	85.3	80.2	80.3	89.8	86.9	93.5	97.5	92.7	92.5	95.8	94.2	87.3	65.5	99.9	76.2	3.21	2.87	91.3	95	87.6	inhibition at 1 µM [9]: 95.3%; Papp A→B [17, 20]: 3.04 ×10⁻⁶ cm/s; IC50 [18, 23]: 4.28 ± 0.08 nM
COC(=O)O[C@H]1C[C@H]2OC[C@@]2(OC(C)=O)[C@H]2[C@H](OC(=O)c3ccccc3)[C@]3(O)C[C@H](OC(=O)[C@H](O)[C@@H](NC(=O)OC(C)(C)C)c4ccccc4)C(C)=C([C@@H](OC)C(=O)[C@]12C)C3(C)C [PCMI-36]	83.8	77.5	81.8	88.3	90.3	95.9	97.8	94.5	107	94.6	96.9	89.7	67.2	102	78	6.66	7.29	88.5	95.5	81.4	inhibition at 1 µM [9]: 94%; IC50 [18, 24]: 4.97 ± 0.06 nM
CO[C@H]1C[C@H]2OC[C@@]2(OC(C)=O)[C@H]2[C@H](OC(=O)c3ccccc3)[C@]3(O)C[C@H](OC(=O)[C@H](O)[C@H](CC(C)C)NC(=O)OC(C)(C)C)C(C)=C([C@@H](OC(=O)N(C)C)C(=O)[C@]12C)C3(C)C [PCMI-25]	80.4	78.4	71.8	82.9	80.7	92.5	97.7	90.9	89.8	90.2	94.8	87.3	78.3	101	69.5	6.41	9.92	71.2	63.9	78.5	inhibition at 1 µM [9]: 89%; Papp B-A [19]: 32.58 10^−6 cm/s; Papp A→B [17, 25]: 8.25 ×10⁻⁶ cm/s; IC50 [18, 24]: 1.7 ± 0.08 nM
CO[C@H]1C(=O)[C@]2(C)[C@@H](OC(=O)N(C)C)C[C@H]3OC[C@@]3(OC(C)=O)[C@H]2[C@H](OC(=O)c2ccccc2)[C@]2(O)C[C@H](OC(=O)[C@H](O)[C@@H](NC(=O)OC(C)(C)C)c3ccccn3)C(C)=C1C2(C)C [PCMI-33]	83.6	76.2	81.8	86.3	87.8	93.2	97.8	91.1	83.5	94.1	94.7	89.1	56	103	74.1	4.27	4.54	94.9	95.8	94	inhibition at 1 µM [9]: 90.3%; IC50 [18, 24]: 46.63 ± 0.14 nM
CO[C@H]1C(=O)[C@]2(C)CC[C@H]3OC[C@@]3(OC(C)=O)[C@H]2[C@H](OC(=O)c2ccccc2)[C@]2(O)C[C@H](OC(=O)[C@H](O)[C@@H](NC(=O)OC(C)(C)C)c3ccccc3)C(C)=C1C2(C)C [PCMI-41]	82.5	80.1	81.1	87.6	85.7	94.6	97.7	94.3	95.5	93.1	95.8	88.3	65	101	77	4.27	5.79	101	97	105	inhibition at 1 µM [9]: 91.6%; Papp A→B [17, 20]: 5.03 ×10⁻⁶ cm/s; IC50 [18, 23]: 3.33 ± 0.11 nM
COC(=O)O[C@H]1C(=O)[C@]2(C)[C@@H](OC)C[C@H]3OC[C@@]3(OC(C)=O)[C@H]2[C@H](OC(=O)c2ccccc2)[C@]2(O)C[C@H](OC(=O)[C@H](O)[C@H](CC(C)C)NC(=O)OC(C)(C)C)C(C)=C1C2(C)C [PCMI-28]	84	84.3	74.1	85.7	85.8	97.5	96.9	92.6	103	92.2	95.6	89.1	81.1	99.7	72.5	8.58	9.46	70.8	64.8	76.8	Papp A-B [19]: 8.87 10^−6 cm/s; Papp B-A [19]: 33.26 10^−6 cm/s; Papp A→B [17, 20]: 9.02 ×10⁻⁶ cm/s; IC50 [18, 24]: 2.9 ± 0.06 nM
CCSC(=O)O[C@H]1C[C@H]2OC[C@@]2(OC(C)=O)[C@H]2[C@H](OC(=O)c3ccccc3)[C@]3(O)C[C@H](OC(=O)[C@H](O)[C@@H](NC(=O)N(C)C)c4ccccc4)C(C)=C([C@@H](OC)C(=O)[C@]12C)C3(C)C [PCMI-40]	87.2	83.6	83.7	90	87.3	93.9	96.9	92.7	94.7	93.3	94.2	87.2	67.3	99.6	80.2	3.78	4.05	74.5	78.2	70.7	inhibition at 1 µM [9]: 95.2%; Papp B→A ([17]; Caco-2): 37.2 ×10⁻⁶ cm/s; efflux ratio ([17]; Caco-2): 5.36; Papp A→B [17, 25]: 6.92 ×10⁻⁶ cm/s; Papp A→B [17, 20]: 3.92 ×10⁻⁶ cm/s; IC50 [18, 24]: 5.49 ± 0.14 nM
CO[C@H]1C(=O)[C@]2(C)[C@@H](OC(=O)N(C)C)C[C@H]3OC[C@@]3(OC(C)=O)[C@H]2[C@H](OC(=O)c2ccccc2)[C@]2(O)C[C@H](OC(=O)[C@H](O)[C@@H](NC(=O)c3ccccc3)c3ccccc3)C(C)=C1C2(C)C [PCMI-32]	83.4	74.4	77.8	87.5	86.6	92.2	97.8	91	102	95.1	95.8	89.8	57.7	103	74.5	3.16	3.38	81.9	82.1	81.6	inhibition at 1 µM [9]: 90.4%; IC50 [18, 24]: 64.67 ± 0.18 nM
